Experimental data published in patent publication US20220047598A1, “Use of Casein Kinase 1 Inhibitors For Treating Vascular Diseases” (Qanatpharma AG, priority 2018, published 2022).
Entries after “also recorded” stand apart in the source; their conditions may differ.

Experiments:
[1] = tested on: mTNF reverse signaling in cremaster skeletal muscle resistance arteries; experiment: sTNFR1-Fc-stimulated vasoconstriction / mTNF reverse signaling in cremaster resistance arteries; parameters: species or system mouse
Description: (§1) Referring to FIG. 1, microvascular smooth muscle cells were cultured form mouse mesenteric arteries and ERK1/2 phosphorylation was assessed by standard western blotting. Murine cremaster skeletal muscle resistance arteries were assessed by pressure myography. mTNF reverse signaling was induced by the intrinsically active TNF type I receptor construct, sTNFR1-Fc.
(§2) Referring to FIG. 3, mouse cremaster skeletal muscle resistance arteries were isolated and cannulated for pressure myography. Stepwise increases in transmural pressure (20-100 mmHg in 20 mmHg steps) elicit myogenic vasoconstriction. […] (FIG. 3d) CKI-7 is not effective in the absence of TNF signaling (i.e., TNF knockout arteries, TNF KO). (FIG. 3e) Phenylephrine-induced vasoconstriction in TNF KO arteries is not affected by CKI-7.

[2] = tested on: ERK1/2 phosphorylation in cremaster resistance arteries; experiment: ERK1/2 phosphorylation by western blot in isolated cremaster resistance arteries after pressure myography; parameters: species or system mouse
Description: as §2
Referring to FIG. 5, mouse cremaster skeletal muscle resistance arteries were isolated at mid-rest phase (ZT7) or mid-active phase (ZT19) and cannulated for pressure myography. One-step increases in transmural pressure (60 to 100 mmHg) elicit myogenic vasoconstriction. […] (FIG. 5c) Cremaster muscle resistance arteries underwent pressure myography and western blotting subsequently assessed ERK1/2 phosphorylation. […] (FIG. 5d) Representative western blot. (FIG. 5e) Resting diameter of the vessels is not affected by PF-670462. (FIG. 5f) Prior to administration of PF-670462, vessel health is intact as shown by robust vasoconstriction to phenylephrine. […] (FIG. 5h) Vessel health, indicated by robust phenylephrine-induced vasoconstriction, is not affected by PF-670462 administration.

[3] = tested on: mTNF reverse signaling (ERK1/2 phosphorylation) in mesenteric vascular smooth muscle cells; experiment: ERK1/2 phosphorylation by western blot in microvascular smooth muscle cells cultured from mouse mesenteric arteries; type: cell-based; details: for sTNFR1-Fc-induced ERK1/2 phosphorylation: microvascular smooth muscle cells, inhibitor concentration not given
Description: as §1
These findings were verified in cremaster skeletal muscle resistance arteries. […] Importantly, none of the above treatments affected agonist-induced vasoconstriction.
as §2

[4] = tested on: mouse cremaster skeletal muscle resistance arteries; experiment: Phenylephrine (agonist)-induced vasoconstriction in isolated cremaster resistance arteries; details: for phenylephrine-induced vasoconstriction (vessel health): wild-type arteries treated in vitro
[5] = tested on: mouse cremaster skeletal muscle resistance arteries; experiment: Pressure myography of isolated cremaster skeletal muscle resistance arteries: myogenic responsiveness, compound applied in vitro; details: for dose dependence of reduction in myogenic responsiveness: dose-response in vitro, n=4-6 vessels per dose
Description: as §1
Referring to FIG. 3, mouse cremaster skeletal muscle resistance arteries were isolated and cannulated for pressure myography. Stepwise increases in transmural pressure (20-100 mmHg in 20 mmHg steps) elicit myogenic vasoconstriction.
Referring to FIG. 4, mouse cremaster skeletal muscle resistance arteries were isolated and cannulated for pressure myography. Stepwise increases in transmural pressure (20-100 mmHg in 20 mmHg steps) elicit myogenic vasoconstriction.
Referring to FIG. 5, mouse cremaster skeletal muscle resistance arteries were isolated at mid-rest phase (ZT7) or mid-active phase (ZT19) and cannulated for pressure myography. One-step increases in transmural pressure (60 to 100 mmHg) elicit myogenic vasoconstriction. […] (FIG. 5c) Cremaster muscle resistance arteries underwent pressure myography and western blotting subsequently assessed ERK1/2 phosphorylation. […] (FIG. 5d) Representative western blot.
Referring to FIG. 6a to c, mice underwent myocardial infarction (ligation of the left-anterior descending coronary artery) or sham surgery. […] Cremaster skeletal muscle resistance arteries were isolated and cannulated for pressure myography.

[6] = tested on: heart failure (myocardial infarction) mice; experiment: Chronic treatment of mice after myocardial infarction (heart failure) or sham surgery; type: in vivo, mouse; details: 7 wks
Description: Referring to FIG. 6g to j, following myocardial infarction or sham surgery, mice were chronically treated with PF-670462 (30 mg/kg, intraperitoneal injection) or vehicle (DMSO) for 7 wks (5 days/wk). […] (FIG. 6h) HF-induced elevations in myogenic tone are normalized by chronic treatment with PF-670462. (FIG. 6i)
Phenylephrine-induced vasoconstriction is intact with chronic PF-670462 treatment. Reduced tone at lower concentrations of phenylephrine in the PF-670462-treated group is the result of changes in resting myogenic tone. (FIG. 6j) Cardiac output, the quantification of blood outflow from the heart assessed with echocardiography, is elevated with chronic PF-670462 treatment.

CK1D/E = details: read-out: published IC50; cited from earlier work
[7] = Mean arterial blood pressure after acute injection; type: in vivo, mouse; details: acute injection 30 mg/kg intraperitoneal, n=3 per group
[8] = tested on: cremaster skeletal muscle resistance arteries; experiment: In vivo treatment of naive mice, then pressure myography of cremaster arteries; parameters: species or system mouse; details: for myogenic responsiveness: naive mice, 24 hrs later, ZT7
Description: Referring to FIG. 6d to f, naive mice were treated with PF-670462 (30-50 mg/kg dissolved in 200 μL water, intraperitoneal injection) or vehicle (200 μL water). 24 hrs later, in mid-rest phase (ZT7), cremaster skeletal muscle resistance arteries underwent pressure myography. […] (FIG. 6e) Phenylephrine-induced vasoconstriction is not altered by in vivo application of PF-670462.

[9] = tested on: mTNF reverse signaling in human embryonic kidney (HEK) cells; experiment: mTNF reverse signaling (ERK1/2 phosphorylation) in transfected HEK cells stimulated with TNF antibody; type: cell-based; details: HEK cells transfected 24 hrs, stimulated 5 min
Description: Importantly, the cytoplasmic tail of mTNF contains the casein kinase 1 (CK1) recognition site (S(P)-X-X-S) that is removed in Trunc TNF, indicating the necessity for CK1 binding in mTNF reverse signaling.

[10] = scavenging TNF; cited from earlier work
[11] = tested on: skeletal muscle resistance arteries; details: scavenging TNF; cited from earlier work
[12] = in vitro application, concentration not given
[13] = chronic treatment 30 mg/kg intraperitoneal

## NCCNS(=O)(=O)c1ccc(Cl)c2ccncc12 [CKI-7]
[1]; cremaster arteries, in vitro application
  sTNFR1-Fc-induced mTNF reverse signaling: abrogates
[1]; sTNFR1-Fc 100 ng/mL
  sTNFR1-Fc-stimulated vasoconstriction: prevented
[2]; isolated cremaster resistance arteries after pressure myography
  sTNFR1-Fc-stimulated ERK1/2 phosphorylation: inhibited
[3]; mesenteric vascular smooth muscle cells, inhibitor 1 μM
  ERK1/2 phosphorylation in response to sTNFRI-Fc: inhibited
[3]
  sTNFR1-Fc-induced ERK1/2 phosphorylation: abolished
[4]; TNF KO arteries
  phenylephrine-induced vasoconstriction in TNF KO arteries: not affected
[4]
  phenylephrine-induced vasoconstriction (vessel health): remains intact
[5]; 10 μM in vitro, transmural pressure 20-100 mmHg in 20 mmHg steps
  myogenic responsiveness: reduces myogenic responsiveness
[5]; TNF−/− (TNF KO) arteries, in vitro
  myogenic responsiveness in TNF knockout arteries: not effective
[5]
  dose dependence of reduction in myogenic responsiveness: dose-dependent reductions
[5]; [12]
  myogenic responsiveness: reduces myogenic responsiveness

## Nc1nccc(-c2c(-c3ccc(F)cc3)ncn2C2CCCCC2)n1 [PF-670462]
[6]; 30 mg/kg intraperitoneal, 5 days/wk
  HF-induced elevations in myogenic tone: normalized
[6]; [13]
  cardiac output (echocardiography): elevated
  phenylephrine-induced vasoconstriction: intact
[2]; cremaster arteries isolated at ZT7 or ZT19
  ERK1/2 phosphorylation, ZT7 versus ZT19: reduces ERK1/2 phosphorylation to a greater extent during the rest phase (ZT7)
[3]
  sTNFR1-Fc-induced ERK1/2 phosphorylation: abolished
[4]; arteries from HF and sham mice, 550 nM in vitro
  phenylephrine-induced vasoconstriction: intact
[4]
  phenylephrine-induced vasoconstriction (vessel health): intact; also recorded: not affected
CK1D/E
  IC50: 7.7 to 14 nM
[5]; 550 nM in vitro
  myogenic responsiveness: reduces myogenic responsiveness
[5]; 550 nM in vitro in bath, 8 weeks post myocardial infarction
  myogenic responsiveness in arteries from HF mice: normalizes myogenic responsiveness
[5]; 550 nM in vitro in bath, sham arteries
  myogenic tone in sham-operated mice: does not affect myogenic tone
[5]; 550 nM in vitro, 30 minutes, both HF and sham groups
  myogenic tone in arteries from HF and sham mice: attenuated to same level
[5]; 550 nM in vitro, repeated replacements of the incubating buffer
  reversibility of the reduction in myogenic responsiveness: reversible
[5]; 10 μM in vitro, ZT7, one-step pressure 60 to 100 mmHg
  myogenic responsiveness at mid-rest phase: reduces myogenic responsiveness only during the rest phase (ZT7)
[5]; 10 μM in vitro, ZT19, one-step pressure 60 to 100 mmHg
  myogenic responsiveness at mid-active phase: not during the active phase (ZT19)
[5]; ZT7, n=4-7 vessels per dose
  dose dependence of reduction in myogenic tone at mid-rest phase: dose-dependently reduces myogenic tone
[5]; ZT7/ZT19 arteries
  resting diameter of the vessels: not affected
[5]; ZT7/ZT19 arteries, before pressure stimulation
  vessel dilation: not affected
[5]
  dose dependence of reduction in myogenic responsiveness: dose-dependent decreases
[5]; [12]
  myogenic responsiveness: reduces myogenic responsiveness
[5]; wild-type (WT) arteries, compared with TNF knockout
  myogenic responsiveness in wild-type arteries: inhibits myogenic responsiveness
[7]
  mean arterial blood pressure (MAP): reduces mean arterial blood pressure
[8]; 30 mg/kg intraperitoneal
  myogenic responsiveness: reduce myogenic responsiveness
[8]; 50 mg/kg intraperitoneal
  myogenic responsiveness: reduce myogenic responsiveness
[8]; applied in vivo, dose not given
  myogenic responsiveness in isolated cremaster arteries: reduced myogenic responsiveness
[8]; in vivo application 30-50 mg/kg intraperitoneal
  phenylephrine-induced vasoconstriction: not altered

## Nc1ncnc2c1c(COc1cccc(Cl)c1)nn2C1CCOCC1 [PF-4800567]
[4]; 30 μM dose, corrected to baseline tone
  reduction in phenylephrine-induced vasoconstriction after correction to baseline tone: remains after correction to baseline tone
[4]; arteries treated at the 30 μM dose
  phenylephrine-induced vasoconstriction: reduced
[5]; 30 μM in vitro
  myogenic responsiveness: abrogates myogenic responsiveness
[5]
  dose dependence of reduction in myogenic responsiveness: dose-dependent reduction
[5]; fold greater than the IC50
  concentration inhibiting myogenic responses relative to the IC50: ~1000 ×

## Adalimumab
[9]
  mTNF reverse signaling (ERK1/2 phosphorylation): not stimulated unless the HEK cells express a tumour necrosis factor (TNF) plasmid construct

## Etanercept
[10]
  systemic blood pressure: reduces systemic blood pressure
[11]
  skeletal muscle resistance artery myogenic responsiveness: attenuates skeletal muscle resistance artery myogenic responsiveness
